Target: T1, human PAD4 (Homo sapiens, UniProt Q9UM07)
T1 construct: human PAD4 (NM_012387), A2-P663, was PCR amplified; His-SUMO (N, cleaved yes); made in house; host or cells: E. coli BL21(DE3)
Assay: In vitro PAD4 BAEE biochemical assay
Conditions: BAEE substrate 3 mM, 5 nM PAD4, 2 mM calcium chloride; geometric mean of multiple experiments
Procedure, shortened: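 PAD4 5 nM, CaCl2 2 mM, BAEE 3 mM final; 50 mM MOPS pH 7.6, 50 mM NaCl, 0.05% Tween-20, 2 mM DTT. Cpd + enzyme 30 min 25 °C; substrate 2 h 25 °C; EDTA stop; OPA detection 1 h. IC50 4-parameter fit.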

T1 sequence (Q9UM07 2-663): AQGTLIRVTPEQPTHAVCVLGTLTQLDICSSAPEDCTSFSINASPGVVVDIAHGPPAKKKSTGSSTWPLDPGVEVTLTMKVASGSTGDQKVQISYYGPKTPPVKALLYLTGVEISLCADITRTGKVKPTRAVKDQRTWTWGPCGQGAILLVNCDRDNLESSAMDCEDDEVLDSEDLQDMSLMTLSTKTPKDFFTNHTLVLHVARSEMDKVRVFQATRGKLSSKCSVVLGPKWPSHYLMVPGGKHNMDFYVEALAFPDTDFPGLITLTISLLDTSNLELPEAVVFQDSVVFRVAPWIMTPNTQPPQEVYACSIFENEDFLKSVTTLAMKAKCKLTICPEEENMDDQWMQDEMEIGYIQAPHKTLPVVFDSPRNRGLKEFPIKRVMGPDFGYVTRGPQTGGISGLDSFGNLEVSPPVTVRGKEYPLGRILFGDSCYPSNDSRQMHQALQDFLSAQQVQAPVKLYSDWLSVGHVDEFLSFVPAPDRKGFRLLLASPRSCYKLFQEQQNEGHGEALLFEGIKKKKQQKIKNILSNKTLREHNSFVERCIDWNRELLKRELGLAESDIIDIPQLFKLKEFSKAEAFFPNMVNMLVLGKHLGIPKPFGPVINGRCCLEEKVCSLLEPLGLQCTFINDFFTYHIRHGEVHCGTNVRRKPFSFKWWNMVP

`COc1cc(C(=O)N2C[C@H](N)[C@@H]3CC[C@H]2C3)cc2nc(-c3cc4cc(F)c5cc4n3CC(F)(F)CCC[C@@H]3C[C@H]3C(=O)N[C@@H]5C)n(C)c12` [Example 463, (2~{R},5~{R},7~{R})-14-[5-[(1~{S},4~{R},5~{R})-4-amino-2-azabicyclo[3.2.1]octane-2-carbonyl]-7-methoxy-1-methyl-benzimidazol-2-yl]-11,11,18-trifluoro-2-methyl-3,13-diazatetracyclo[11.5.2.0^{5,7}.0^{16,20}] icosa-1(19),14,16(20),17-tetraen-4-one] showed an IC50 of 0.029 µM.
Compound `C[C@H]1NC(=O)[C@@H]2C[C@H]2CCCC(F)(F)Cn2c(-c3nc4cc(C(=O)N5C[C@H](N)[C@@H]6CC[C@H]5C6)cc(F)c4n3C3CC3)cc3cc(F)c1cc32` [Example 464, (2~{R},5~{R},7~{R})-14-[5-[(1~{S},4~{R},5~{R})-4-amino-2-azabicyclo[3.2.1]octane-2-carbonyl]-1-cyclopropyl-7-fluoro-benzimidazol-2-yl]-11,11,18-trifluoro-2-methyl-3,13-diazatetracyclo[11.5.2.0^{5,7}.0^{16,20}] icosa-1(19),14,16(20),17-tetraen-4-one] has an IC50 of 0.028 µM.
`COc1cc(C(=O)N2C[C@H](N)[C@@H]3CC[C@H]2C3)cc2nc(-c3cc4ccc5cc4n3CCCCCCC(C)(C)C(=O)N[C@@H]5C)n(C)c12` [Example 465, (11~{R})-17-[5-[(1~{S},4~{R},5~{R})-4-amino-2-azabicyclo[3.2.1]octane-2-carbonyl]-7-methoxy-1-methyl-benzimidazol-2-yl]-8,8,11-trimethyl-1,10-diazatricyclo[10.5.2.0^{15,18}]nonadeca-12(19),13,15(18),16-tetraen-9-one] was tested, and the IC50 was 0.023 µM.
Work on `C[C@H]1NC(=O)[C@@H]2C[C@H]2CCCC(F)(F)Cn2c(-c3nc4cc(C(=O)N5C[C@H](N)[C@@H]6CC[C@H]5C6)c(F)c(F)c4n3C3CC3)cc3ccc1nc32` [Example 466, (2~{R},5~{R},7~{R})-14-[5-[(1~{S),4~{R},5~{R})-4-amino-2-azabicyclo[3.2.1]octane-2-carbonyl]-1-cyclopropyl-6,7-difluoro-benzimidazol-2-yl]-11,11-difluoro-2-methyl-3,13,19-triazatetracyclo[11.5.2.0^{5,7}.0^{16,20}] icosa-1(19),14,16(20),17-tetraen-4-one] yielded an IC50 of 0.055 µM.
`C[C@H]1NC(=O)[C@@H]2C[C@H]2CCCC(F)(F)Cn2c(-c3nc4cc(C(=O)N5C[C@H](N)[C@@H]6CC[C@H]5C6)cc(F)c4n3[C@@H]3C[C@@H]3F)cc3ccc1nc32` [Example 467, (2~{R},5~{R},7~{R})-14-[(1~{R})-5-[(1~{S},4~{R},5~{R})-4-amino-2-azabicyclo[3.2.1]octane-2-carbonyl]-7-fluoro-1-[(2~{S})-2-fluorocyclopropyl]benzimidazol-2-yl]-11,11-difluoro-2-methyl-3,13,19-triazatetracyclo[11.5.2.0^{5,7}.0^{16,20}] icosa-1(19),14,16(20),17-tetraen-4-one] was tested, and the IC50 was 0.027 µM.
In the case of `C[C@H]1NC(=O)[C@@H]2C[C@H]2CCCC(F)(F)Cn2c(-c3nc4cc(C(=O)N5C[C@H](N)[C@@H]6CC[C@H]5C6)cc(F)c4n3[C@H]3C[C@H]3F)cc3ccc1nc32` [Example 468, (2~{R},5~{R},7~{R})-14-[5-[(1~{S},4~{R},5~{R})-4-amino-2-azabicyclo[3.2.1]octane-2-carbonyl]-7-fluoro-1-[(1~{S},2~{R})-2-fluorocyclopropyl]benzimidazol-2-yl]-11,11-difluoro-2-methyl-3,13,19-triazatetracyclo[11.5.2.0^{5,7}.0^{16,20}] icosa-1(19),14,16(20),17-tetraen-4-one], the IC50 is reported as 0.028 µM.
Work on `C[C@H]1NC(=O)c2ccc(Cl)nc2CCCCCn2c(-c3nc4cc(C(=O)N5C[C@H](N)[C@@H]6CC[C@H]5C6)cc(F)c4n3C)cc3ccc1nc32` [Example 469, (2~{R})-17-[5-[(1~{S),4~{R},5~{R})-4-amino-2-azabicyclo[3.2.1]octane-2-carbonyl]-7-fluoro-1-methyl-benzimidazol-2-yl]-8-chloro-2-methyl-3,9,16,22-tetrazatetracyclo[14.5.2.0^{5,10).0^ {19,23)]tricosa-1(21),5(10),6,8,17,19,22-heptaen-4-one] yielded an IC50 of 0.021 µM.
